# Data from the supplement of paper PMC10307832.
# Legend:
# Assay in all cases: relative viability (nuclei count vs DMSO), 5 days (fraction); higher = more cells survive
# Pemetrexed + Alpelisib = compound: Nc1nc2[nH]cc(CCc3ccc(C(=O)N[C@@H](CCC(=O)O)C(=O)O)cc3)c2c(=O)[nH]1 [Pemetrexed] + Cc1nc(NC(=O)N2CCC[C@H]2C(N)=O)sc1-c1ccnc(C(C)(C)C(F)(F)F)c1 [Alpelisib] (partner 2 µM)
# In short: (§1)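 Lung cancer cell lines were pin-tool dosed in 1536-well plates on the day after seeding, with either a lone drug or a fixed anchor-drug dose plus five library-drug doses (not always all listed) in √10 steps. Nuclei were counted on 4× images after 5 days. Relative viability is the ratio of treated-well to vehicle-well nuclei counts, with each value a median of duplicate plates.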
# Idelalisib + Olaparib = compound: CC[C@H](Nc1ncnc2[nH]cnc12)c1nc2cccc(F)c2c(=O)n1-c1ccccc1 [Idelalisib] + O=C(c1cc(Cc2n[nH]c(=O)c3ccccc23)ccc1F)N1CCN(C(=O)C2CC2)CC1 [Olaparib] (partner 8 µM)
# In short: as §1
# Idelalisib + OSI-027 = compound: CC[C@H](Nc1ncnc2[nH]cnc12)c1nc2cccc(F)c2c(=O)n1-c1ccccc1 [Idelalisib] + COc1cccc2cc(-c3nc([C@H]4CC[C@H](C(=O)O)CC4)n4ncnc(N)c34)[nH]c12 [OSI-027] (partner 0.5 µM)
# In short: as §1
# Pemetrexed + Olaparib = compound: Nc1nc2[nH]cc(CCc3ccc(C(=O)N[C@@H](CCC(=O)O)C(=O)O)cc3)c2c(=O)[nH]1 [Pemetrexed] + O=C(c1cc(Cc2n[nH]c(=O)c3ccccc23)ccc1F)N1CCN(C(=O)C2CC2)CC1 [Olaparib] (partner 8 µM)
# In short: as §1
Cell Line,relative viability (Pemetrexed + Alpelisib; first compound 0.002 µM),relative viability (Pemetrexed + Alpelisib; first compound 0.006325 µM),relative viability (Pemetrexed + Alpelisib; first compound 0.02 µM),relative viability (Pemetrexed + Alpelisib; first compound 0.06325 µM),relative viability (Pemetrexed + Alpelisib; first compound 0.2 µM),relative viability (Idelalisib + Olaparib; first compound 0.04 µM),relative viability (Idelalisib + Olaparib; first compound 0.1265 µM),relative viability (Idelalisib + Olaparib; first compound 0.4 µM),relative viability (Idelalisib + Olaparib; first compound 1.265 µM),relative viability (Idelalisib + Olaparib; first compound 4 µM),relative viability (Idelalisib + OSI-027; first compound 0.04 µM),relative viability (Idelalisib + OSI-027; first compound 0.1265 µM),relative viability (Idelalisib + OSI-027; first compound 0.4 µM),relative viability (Idelalisib + OSI-027; first compound 1.265 µM),relative viability (Idelalisib + OSI-027; first compound 4 µM),relative viability (Pemetrexed + Olaparib; first compound 0.002 µM),relative viability (Pemetrexed + Olaparib; first compound 0.006325 µM),relative viability (Pemetrexed + Olaparib; first compound 0.02 µM),relative viability (Pemetrexed + Olaparib; first compound 0.06325 µM),relative viability (Pemetrexed + Olaparib; first compound 0.2 µM)
NCI-H2126,0.737,0.758,0.75,0.703,0.742,0.933,0.916,0.834,0.972,0.898,0.67,0.678,0.462,0.732,0.704,0.861,0.965,0.886,0.889,0.777
NCI-H2170,0.723,0.831,0.905,0.869,0.824,0.606,0.679,0.643,0.558,0.515,0.722,0.793,0.637,0.609,0.649,0.573,0.62,0.652,0.633,0.555
NCI-H2228,0.833,0.721,0.752,0.474,0.319,0.911,0.985,0.589,0.871,0.538,0.687,0.725,0.453,0.637,0.597,0.657,0.478,0.695,0.329,0.273
NCI-H2347,0.858,0.893,1.07,0.869,0.633,0.591,0.659,0.528,0.644,0.464,0.379,0.332,0.367,0.348,0.257,0.55,0.527,0.678,0.517,0.499
NCI-H2405,0.896,0.714,0.868,0.712,0.736,0.893,0.885,0.76,0.868,0.836,0.675,0.648,0.433,0.612,0.516,0.793,0.821,0.885,0.846,0.862
NCI-H3122,0.94,0.833,0.734,0.772,0.521,0.611,0.626,0.669,0.584,0.49,0.879,0.952,0.729,0.941,0.764,0.592,0.636,0.678,0.567,0.513
PC-3 [JPC-3],0.948,1.04,1.04,1.03,0.972,1.09,1.23,1.08,1.13,0.953,0.712,0.747,0.639,0.694,0.571,1.03,1.18,1.19,1.14,1.08
PC-14,0.897,0.958,0.931,0.535,0.158,0.268,0.232,0.239,0.384,0.297,0.946,1.05,0.721,0.338,0.754,0.272,0.151,0.274,0.127,0.0867
RERF-LC-KJ,1.12,0.774,0.84,0.868,0.538,0.873,0.941,0.864,0.892,0.814,0.632,0.563,0.436,0.502,0.516,0.956,0.843,0.973,0.865,0.612
SK-LU-1,0.874,1.02,1.04,0.931,1.02,0.584,0.492,0.41,0.424,0.464,0.383,0.39,0.27,0.369,0.272,0.405,0.5,0.58,0.51,0.455
SK-MES-1,0.92,0.732,1.04,0.864,0.8,0.736,0.711,0.679,0.636,0.448,0.666,0.611,0.427,0.218,0.467,0.603,0.708,0.821,0.649,0.627
SW 1573,0.826,0.741,0.723,0.733,0.76,0.465,0.426,0.364,0.521,0.431,0.625,0.656,0.518,0.492,0.531,0.477,0.45,0.472,0.423,0.43
